Results published in article PMC4704022, “Insights on FXR selective modulation. Speculation on bile acid chemical space in the discovery of potent and selective agonists” (Scientific Reports, 2016).
Entries after “also recorded” stand apart in the source; their conditions may differ.

Legend:
NASH patients = system: NASH patients; design: method as in PMID 25468160; conditions: cited from earlier work
PBC patients = conditions: cited from earlier work
FXR = target: T1, FXR (Homo sapiens, UniProt Q96RI1); test: FXR transactivation luciferase reporter assay in transfected HepG2 cells; format: cell-based; conditions: for FXR transactivation activity (in words): HepG2 cells, compounds at 10 μM, CDCA 10 μM and 6-ECDCA 1 μM as positive controls; for EC50: HepG2 cells transfected with FXR, luciferase reporter, 100 nM to 10 μM
T1 construct: expressed in transfected cells; host or cells: HepG2
T1 sequence (Q96RI1 1-486): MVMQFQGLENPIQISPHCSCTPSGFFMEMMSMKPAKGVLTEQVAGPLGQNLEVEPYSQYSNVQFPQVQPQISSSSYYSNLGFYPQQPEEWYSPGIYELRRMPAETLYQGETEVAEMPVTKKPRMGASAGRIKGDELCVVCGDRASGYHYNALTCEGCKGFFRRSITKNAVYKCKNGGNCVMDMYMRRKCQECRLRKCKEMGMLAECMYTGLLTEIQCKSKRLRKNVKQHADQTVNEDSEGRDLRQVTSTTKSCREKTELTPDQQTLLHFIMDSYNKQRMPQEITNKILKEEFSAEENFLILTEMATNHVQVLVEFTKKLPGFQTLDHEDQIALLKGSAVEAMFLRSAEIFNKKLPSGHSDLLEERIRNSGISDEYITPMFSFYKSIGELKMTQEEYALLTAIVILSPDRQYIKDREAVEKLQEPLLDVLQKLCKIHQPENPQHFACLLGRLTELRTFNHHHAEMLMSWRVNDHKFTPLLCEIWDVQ
T1 sequence (P19793 1-462 partner): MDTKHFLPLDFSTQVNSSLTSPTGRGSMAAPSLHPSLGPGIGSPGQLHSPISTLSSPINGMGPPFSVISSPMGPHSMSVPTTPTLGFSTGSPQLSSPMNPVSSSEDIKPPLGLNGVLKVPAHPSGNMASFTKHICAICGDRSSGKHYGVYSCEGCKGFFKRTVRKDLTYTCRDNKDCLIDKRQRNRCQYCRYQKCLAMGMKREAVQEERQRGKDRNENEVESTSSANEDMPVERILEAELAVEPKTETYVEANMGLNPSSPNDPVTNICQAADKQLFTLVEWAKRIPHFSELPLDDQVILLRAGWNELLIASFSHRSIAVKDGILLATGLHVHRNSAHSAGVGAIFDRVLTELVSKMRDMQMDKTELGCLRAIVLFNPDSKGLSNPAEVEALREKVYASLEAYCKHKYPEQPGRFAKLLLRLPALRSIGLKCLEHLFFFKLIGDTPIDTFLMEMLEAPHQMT
Description: Figure 6 Transactivation assays on FXR. (A) HepG2 cells were transfected with pSG5-FXR, pSG5-RXR, pCMV-βgal, and p(hsp27)TKLUC vectors. […] Twenty-four hour post transfection cells were stimulated with increasing concentrations of each agent: range from 100 nM to 10 μM.
To evaluate the transcriptional activity of FXR, HepG2 cells were transiently transfected with Fugene HD reagent (Promega) using the followings plasmids: pCMVSPORT-humanFXR, pSG5RXR, p(hsp27)TKLUC and pGL4.70, a plasmid containing the Renilla gene used for luciferase normalization.

GPBAR1 [1] = target: T2, GPBAR1 (Homo sapiens, UniProt Q8TDU6); test: GPBAR1 agonism, CRE-luciferase transactivation assay in transfected HEK-293T cells; format: cell-based; conditions: from FXR and GPBAR1 transactivation results
T2 construct: expressed in transfected cells; host or cells: HEK-293T
T2 sequence (Q8TDU6 1-330): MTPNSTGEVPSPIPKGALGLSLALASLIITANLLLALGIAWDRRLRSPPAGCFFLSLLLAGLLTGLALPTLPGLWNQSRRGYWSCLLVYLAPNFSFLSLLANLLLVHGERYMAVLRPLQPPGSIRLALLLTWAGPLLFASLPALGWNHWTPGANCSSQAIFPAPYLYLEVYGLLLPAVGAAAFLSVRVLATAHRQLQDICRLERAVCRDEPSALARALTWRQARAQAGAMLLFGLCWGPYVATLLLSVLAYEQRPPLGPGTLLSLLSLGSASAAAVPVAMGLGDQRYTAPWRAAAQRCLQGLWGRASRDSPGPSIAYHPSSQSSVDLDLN
Description: (A) HEK-293T cells were co-transfected with GPBAR1 and a reporter gene containing a cAMP responsive element in front of the luciferase gene. Twenty-four hour post transfection cells were stimulated with 7–21 (10 μM). Luciferase activity served as a measure of the rise in intracellular cAMP following activation of GPBAR1. […] Twenty-four hour post transfection cells were stimulated with increasing concentrations of each agent: range from 100 nM to 50 μM. Results are expressed as mean ± standard error.
To investigate GPBAR1 activation, HEK-293T cells were transiently transfected with Fugene HD reagent (Promega) using the following vectors: pCMVSPORT6-human GPBAR1, pGL4.29 (Promega), a reporter vector containing a cAMP response element (CRE) cloned upstream to the luciferase reporter gene luc2P and pGL4.70. […] Dose-response curves were performed in HEK-293T cells transfected as described above and treated with increasing concentrations of 9 and 21 (from 100 nM to 50 μM). […] At 18 h post stimulations, cellular lysate was assayed for luciferase and renilla activities using the Dual-Luciferase Reporter assay system (E1980, Promega). Luminescence was measured using Glomax 20/20 luminometer (Promega). Luciferase activities were normalized with Renilla activities.

FXR-LBD = target: T3, FXR-LBD (Homo sapiens, UniProt Q96RI1); test: Alphascreen coactivator recruitment assay, FXR-LBD with SRC-1 peptide; format: biochemical; conditions: ligand at 2 μM, effect of 6 set as 100%
T3 construct: 10 nM of purified GST-tagged FXR-LBD protein
T3 sequence (Q96RI1 262-486 limits assumed): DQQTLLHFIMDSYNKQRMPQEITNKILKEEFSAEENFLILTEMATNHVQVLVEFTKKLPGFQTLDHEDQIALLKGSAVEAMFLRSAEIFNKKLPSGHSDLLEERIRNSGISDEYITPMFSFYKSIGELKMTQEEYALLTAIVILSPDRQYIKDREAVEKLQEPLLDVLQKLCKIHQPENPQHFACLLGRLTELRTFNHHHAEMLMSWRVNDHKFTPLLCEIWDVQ
Description: Figure 7 Coactivator recruitment assay measuring a direct interaction of FXR with SRC-1. Anti-GST-coated acceptor beads captured GST-fusion FXR-LBD and the biotinylated-SRC-1 peptide was captured by the streptavidin donor beads. FXR-LBD recruited SRC-1 in the presence of ligand at 2 μM and, upon illumination at 680 nm, chemical energy is transferred from donor to acceptor beads across the complex streptavidin-donor/Src-1-biotin/ligand/GSTFXR-LBD/anti-GST-acceptor and a signal is produced. Results are expressed as percentage of the effect of 6 arbitrarily settled as 100%. NT is referred to the experiment carried out in absence of ligand. Results are expressed as mean ± standard error.
The relative potency of selected members of this novel family was then investigated by a detailed measurement of concentration-response curve of the 3-deoxy sulfate derivative 9, the corresponding carboxylic acid 10, and the 3β-hydroxyl alcohol 15 and carboxylic acid derivative 17, all sharing the 6α/7α configuration, on FXR transactivation. […] In this assay, the ligand induces the recruitment of the coactivator to the LBD of hFXR.
Anti-GST-coated acceptor beads were used to capture the GST-fusion FXR-LBD, whereas the biotinylated-SRC-1 peptide was captured by the streptavidin donor beads. Upon illumination at 680 nm, chemical energy is transferred from donor to acceptor beads across the complex streptavidin-donor/Src-1-biotin/GSTFXR-LBD/anti-GST-acceptor and a signal is produced. The assay was performed in white, low-volume, 384-well Optiplates (PerkinElmer) using a final volume of 25 μL containing final concentrations of 10 nM of purified GST-tagged FXR-LBD protein, 30 nM biotinylated Src-1 peptide, 20 μg/mL anti-GST acceptor beads acceptor beads, and 10 μg/mL of streptavidin donor bead (PerkinElmer). The assay buffer contained 50 mM Tris (pH 7.4), 50 mM KCl, 0.1% BSA, and 1 mM DTT. […] After the addition of the detection mix (acceptor and donor beads), the plates were incubated in the dark for 4 h at room temperature and then were read in an Envision microplate analyzer (PerkinElmer).

GPBAR1 [2] = system: GPBAR1; design: method as in PMID 25247751; conditions: cited from earlier work

CC[C@H]1[C@@H](O)[C@@H]2[C@H](CC[C@]3(C)[C@@H]([C@H](C)CCC(=O)O)CC[C@@H]23)[C@@]2(C)CC[C@@H](O)C[C@@H]12 [6-ECDCA, 6-ethylchenodeoxycholic acid]
NASH resolution, patients (NASH patients; after 72 weeks, p = 0.08 vs. placebo): 22% | Decrease in HDL-C levels (NASH patients; as compared to placebo): 5% | Increase in LDL-C (NASH patients; as compared to placebo): 16% | Primary histological outcome (NAFLD activity score) and fibrosis score (NASH patients; compared with placebo): significantly improved | Drug discontinuation due to exacerbation of itching, patients (PBC patients; PBC patients): 40% | Drug discontinuation, patients (PBC patients; due to pruritus): 40% | Incidence of pruritus, patients (PBC patients; patients with primary biliary cirrhosis): up to 80%

CC[C@H]1[C@@H](O)C2C3CC[C@H]([C@H](C)CCCO)[C@@]3(C)CCC2[C@@]2(C)CCCC[C@@H]12 (some centres unmarked) [compound 7]
FXR transactivation activity (in words) (FXR): potent agonists of FXR

CC[C@H]1[C@H](O)C2C3CC[C@H]([C@H](C)CCCO)[C@@]3(C)CCC2[C@@]2(C)CCCC[C@@H]12 (some centres unmarked) [compound 8]
FXR transactivation activity (in words) (FXR): completely inactive towards FXR

CC[C@H]1[C@@H](O)C2C3CC[C@H]([C@H](C)CCCOS(=O)(=O)O)[C@@]3(C)CCC2[C@@]2(C)CCCC[C@@H]12 (some centres unmarked) [compound 9]
EC50 (FXR): 1.1 µM | FXR transactivation activity (in words) (FXR): potent agonists of FXR | Receptor preference FXR versus GPBAR1 (in words) (GPBAR1 [1]): preferential FXR modulator with a residual activity on GPBAR1

CC[C@H]1[C@H](O)[C@@H]2[C@H](CC[C@]3(C)[C@@H]([C@H](C)CCC(=O)O)CC[C@@H]23)[C@@]2(C)CCCC[C@@H]12 [compound 11, 6α-ethyl-7β-hydroxy-5β-cholan-24-oic acid]
FXR transactivation activity (in words) (FXR): retains a certain activity

CC[C@H]1[C@@H](O)C2C3CC[C@H]([C@H](C)CCC(=O)NCCS(=O)(=O)O)[C@@]3(C)CCC2[C@@]2(C)CCCC[C@@H]12 (some centres unmarked) [compound 12]
FXR transactivation activity (in words) (FXR): ability in transactivating FXR is also maintained; also recorded: still a potent FXR agonist

CC[C@@H]1[C@H](O)C2C3CC[C@H]([C@H](C)CCCO)[C@@]3(C)CCC2[C@@]2(C)CCCC[C@@H]12 (some centres unmarked) [compound 13]
FXR transactivation activity (in words) (FXR): complete loss of activity

CC[C@H]1[C@@H](O)[C@@H]2[C@H](CC[C@]3(C)[C@@H]([C@H](C)CCCO)CC[C@@H]23)[C@@]2(C)CC[C@H](O)C[C@@H]12 [compound 15, 6α-ethyl-3β,7α-dihydroxy-5β-cholan-24-ol]
Recruitment of SRC-1 coactivator to FXR-LBD (in words) (FXR-LBD): very potent activity in the recruitment of SRC-1 co-activator | EC50 (FXR): 2.2 µM | FXR transactivation activity (in words) (FXR): potent agonists of FXR

CC[C@H]1[C@@H](O)[C@@H]2[C@H](CC[C@]3(C)[C@@H]([C@H](C)CCC(=O)O)CC[C@@H]23)[C@@]2(C)CC[C@H](O)C[C@@H]12 [compound 17, 6α-ethyl-3β,7α-dihydroxy-5β-cholan-24-oic acid]
Recruitment of SRC-1 coactivator to FXR-LBD (in words) (FXR-LBD): very potent activity in the recruitment of SRC-1 co-activator | FXR transactivation activity (in words) (FXR): potent agonists of FXR

CC[C@H]1[C@@H](O)C2C3CC[C@H]([C@H](C)CCC(=O)NCCS(=O)(=O)O)[C@@]3(C)CCC2[C@@]2(C)CC[C@H](O)C[C@@H]12 (some centres unmarked) [compound 19]
FXR transactivation activity (in words) (FXR): considerable decrease in FXR transactivation activity; also recorded: detrimental in term of FXR activation

CC[C@@H]1[C@H](O)C2C3CC[C@H]([C@H](C)CCCO)[C@@]3(C)CCC2[C@@]2(C)CC[C@H](O)C[C@@H]12 (some centres unmarked) [compound 20]
FXR transactivation activity (in words) (FXR): complete loss of activity

CC[C@@H]1[C@@H](O)C2C3CC[C@H]([C@H](C)CCCO)[C@@]3(C)CCC2[C@@]2(C)CC[C@H](O)C[C@@H]12 (some centres unmarked) [compound 21]
FXR transactivation activity (in words) (FXR): less potent then CDCA in transactivating FXR | Receptor preference FXR versus GPBAR1 (in words) (GPBAR1 [1]): weak but preferential GPBAR1 activator

C[C@H](CCC(=O)O)[C@H]1CC[C@H]2[C@@H]3[C@H](O)C[C@@H]4C[C@@H](O)CC[C@]4(C)[C@H]3CC[C@]12C [iso-CDCA, isochenodeoxycholic acid]
GPBAR1 activity (in words) (GPBAR1 [2]): very weak activity towards GPBAR1

C[C@H](CCC(=O)O)[C@H]1CC[C@H]2[C@@H]3CC[C@@H]4C[C@@H](O)CC[C@]4(C)[C@H]3CC[C@]12C [iso-LCA]
GPBAR1 activity (in words) (GPBAR1 [2]): less potent respect to the cognate LCA
